Results on seven compounds are retold here after PMC12716005, “Design, Synthesis, and Molecular Docking of Triazole‐Coumarin Hybrids as Potent Breast Cancer Inhibitors Targeting Cell Cycle and Apoptosis” (Chemistry & Biodiversity, 2025).

Assay [1] relates to MDA‐MB‐231 breast cancer cells. The assay is described as follows: MTT cell viability assay, MDA-MB-231. In kind it is cell-based, human. Conditions: for IC50: MTT, 72 h. The protocol: (§1) Human cell lines, breast cancer MCF‐7 and MDA‐MB‐231, along with the human breast epithelial cell line (MCF‐10A), were purchased from ATCC (Rockville, USA). The necessary supplies, including fetal bovine serum (FBS), RPMI 1640 medium, 3‐(4,5‐dimethylthiazol‐2‐yl)‐2,5‐diphenyltetrazolium bromide (MTT), and DMSO, were provided by Merck (Darmstadt, Germany). The cells were maintained at 37°C in a CO2─enriched chamber, utilizing RPMI 1640 medium fortified with 10% FBS and 100 U/mL of penicillin/streptomycin [30].
(§2) Cell survival was evaluated using the MTT technique, which measures cellular redox activity. In metabolically active cells, MTT (3‐(4,5‐dimethylthiazol‐2‐yl)) is reduced to form an insoluble purple formazan. This formazan was solubilized, and its concentration was quantified by measuring optical density. MTT, sourced as a powder from Sigma, was made with phosphate‐buffered saline (PBS) in a 5 mM standard solution. The density at which cells were propagated was 10⁴ cells per well in 96‐well plates. Triazole‐coumarin hybrids were dissolved in DMSO, and varying concentrations (0.1–200 µM) of these derivatives were applied to the cells. Following treatment for 24, 48, and 72 h, 20 µL of the MTT mix was applied to each well, and the wells were then incubated for 4 h at thirty‐seven degrees in a CO2 incubator. After incubating, the formazan crystals were dissolved by adding 200 µL of DMSO after the MTT mixture was withdrawn. The absorption rate was recorded at 590 nm utilizing a Tecan spectrophotometer. Cisplatin served as the reference drug. […] To determine the selective toxicity of the triazole‐coumarin hybrids against breast cancer cells, the formula was used to compute the SI = IC50 for normal cells/IC50 for cancer cells.
On the technique in general: Tetrazolium assays rely on reduction of a dye to a coloured formazan, in cell work by metabolically active cells.

The subject of assay [2] is MCF‐7 breast cancer cells. The assay is described as follows: MTT cell viability assay, MCF-7. Type of assay: cell-based, human. Particulars: for IC50: MTT, 72 h. The protocol:
as §1, §2

The test system of assay [3] is MCF‐10A human breast epithelial cells. The assay is described as follows: MTT cell viability assay, MCF-10A. In kind it is cell-based. Conditions: 72 h, non-tumorigenic cells. The procedure: as §1, §2
In assay [4] the test system is MCF‐7. On the set-up: method as in PMID 30556027. Particulars: literature ref 28; cited from earlier work.
For assay [5], the system named is MCF‐7 breast cancer cells. The assay is described as follows: Cell cycle analysis by flow cytometry (PI), MCF-7. Conditions: 72 h. In kind it is cell-based, human. The procedure: (§3) In 24‐well plates, cells were introduced at a concentration of 5×10⁵ colonies per plate, and compound 5f was administered at its IC50 concentration for 72 h. The cell cycle phases were evaluated using the Cayman Cell Cycle Phase Determination Kit. Following treatment, applying cold PBS, cells were rinsed, trypsinized, and 5 min of centrifugation at 500 × g. The resulting pellets were resuspended in 250 µL of fixative and held at −20°C for 2 h. After a second centrifugation at 500 × g for 5 min, washing was carried out with PBS and stained with propidium iodide (PI) for 30 min at room temperature. Flow cytometric analysis of the cell cycle was implemented using a BD Accuri C6 flow cytometer, with detection wavelengths ranging from 488 to 650 nm.
Background: A flow cytometer gives signals particle by particle.

In assay [6] the test system is MCF‐7 breast cancer cells. The assay is described as follows: DNA fragmentation (Cell Death Detection kit), MCF-7. In kind it is cell-based, human. Particulars: 72 h, p < 0.05. The procedure: (§4) As an apoptotic signature, DNA fragmentation was evaluated using the Cell Death Detection kit (Sigma). In 96‐well plates, cancerous cells were cultivated at a density of 1×10⁵ cells per well, and compound 5f was applied at its IC50 concentration for 72 h. In brief, 20 µL of cell lysates were transferred to streptavidin‐coated wells preloaded with anti‐DNA antibodies and held at RT for 2 h. Three washes afterward with the provided washing buffer, 2,2‐azino‐di‐(3‐ethylbenzthiazoline sulfonate) diammonium salt was put into every well. Absorbance was determined at 405 nm employing a spectrophotometer.

In assay [7] the test system is Bcl─2 mRNA. The assay is described as follows: qRT-PCR Bcl-2 mRNA in MCF-7. Type of assay: cell-based, human. Particulars: MCF-7, IC50 value of 5f, 72 h. The protocol: (§5) To figure out the mRNA levels of apoptosis‐related proteins B‐cell lymphoma 2 (Bcl─2), Bcl─2‐associated X protein (Bax), cyclin‐dependent kinase 2 (CDK2), and Cyclin E, total mRNA was extracted from cells treated with compound 5f using Trizol reagent (Sigma). Complementary DNA (cDNA) synthesis was conducted from total mRNA using a Qiagen cDNA synthesis kit as described by the manufacturer. The primers listed below (350 nM concentration) were utilized: Bcl─2; forward ([…]); reverse ([…]), Bax; forward ([…]); reverse ([…]), CDK2; forward ([…]); reverse (TGGCTGAAATCCGCTTGTT), Cyclin E; forward ([…]); reverse ([…]), human GAPDH; forward ([…]); reverse (AGATGGTGATGGGCTTCCC). The PCR reaction mixture consisted of 1X buffer, 0.2 mM dNTPs, 1.6 mM MgCl2, 50 pmol of primer sets, cDNA, and 0.25 U of Taq polymerase. The thermal cycling conditions included an initial denaturation at 95°C for 60 s, followed by 50 cycles comprising 15 s of denaturation at 95°C, 15 s of annealing at 60°C, and 60 s of extension at 72°C. The median CT value of GAPDH, the naturally present housekeeping gene, was utilized to normalize the cycle threshold (CT) values. Levels of compared transcription were established using the comparative ^ΔΔCT method.
A general note: Quantitative PCR measures a nucleic acid by following its amplification.

Assay [8] relates to MDA‐MB‐231 breast cancer cells. The assay is described as follows: DNA fragmentation (Cell Death Detection kit), MDA-MB-231. Type of assay: cell-based, human. Particulars: 72 h, p < 0.05. The protocol: as §4
Assay [9] concerns MDA‐MB‐231 breast cancer cells. The assay is described as follows: Cell cycle analysis by flow cytometry (PI), MDA-MB-231. In kind it is cell-based, human. Particulars: 72 h. The protocol:
as §3

Assay [10] deals with Bcl─2 mRNA. The assay is described as follows: qRT-PCR Bcl-2 mRNA in MDA-MB-231. Type of assay: cell-based, human. Conditions: MDA-MB-231, IC50 value of 5f, 72 h. The procedure:
as §5

Assay [11] concerns Bax mRNA. The assay is described as follows: qRT-PCR Bax mRNA in MCF-7. In kind it is cell-based, human. Particulars: MCF-7, IC50 value of 5f, 72 h. The protocol: as §5
The subject of assay [12] is Bax mRNA. The assay is described as follows: qRT-PCR Bax mRNA in MDA-MB-231. Conditions: MDA-MB-231, IC50 value of 5f, 72 h. In kind it is cell-based, human. The protocol:
as §5

[13] abbreviates: SI = IC50 for normal cells (MCF-10A)/IC50 for cancer cells.

Each structure is given as a SMILES string.

As usually defined, the IC50 is the midpoint of a concentration-inhibition curve. The low end stands for higher potency, the high end for lower potency. Regarding `N.N.[Cl][Pt][Cl]` [Cisplatin, cisplatin, reference compound], the figures for the IC50 in [1], in [2] and in assay [3] were 8.7 ± 0.6 µM, 9.3 ± 1.2 µM and 12.2 ± 0.8 µM, respectively.
Take `Cc1n[nH]c(=O)n1NC(=O)c1cc2c(ccc3ccccc32)oc1=O` [Derivative 5a, N‐(3‐Methyl‐5‐oxo‐1,5‐dihydro‐4H‐1,2,4‐triazol‐4‐yl)‐3‐oxo‐3H‐benzo[f]chromene‐2‐carboxamide]: the IC50 was found to be 18.4 ± 1.16 µM in assay [1] (Homo sapiens, MDA-MB-231, 72 h); 22.5 ± 1.8 µM in assay [2] (Homo sapiens, MCF7, 72 h); 12.5 ± 1 µM in assay [3] (Homo sapiens, MCF-10A).
For `CCc1n[nH]c(=O)n1NC(=O)c1cc2c(ccc3ccccc32)oc1=O` [Derivative 5b, N‐(3‐Ethyl‐5‐oxo‐1,5‐dihydro‐4H‐1,2,4‐triazol‐4‐yl)‐3‐oxo‐3H‐benzo[f]chromene‐2‐carboxamide], the IC50 turned out to be 95.8 ± 2.4 µM in [1] (Homo sapiens, MDA-MB-231, 72 h); 76.6 ± 2.1 µM in assay [2] (Homo sapiens, MCF7, 72 h); 25.2 ± 1.5 µM in assay [3] (Homo sapiens, MCF-10A). In assay [4], the “apoptotic effect in MCF‐7” value is listed as “altered the mitochondrial membrane potential in MCF‐7, causing apoptotic cell death”.
For the compound `O=C(Nn1c(-c2ccccc2)n[nH]c1=O)c1cc2c(ccc3ccccc32)oc1=O` [Derivative 5c, 3‐Oxo‐N‐(5‐oxo‐3‐phenyl‐1,5‐dihydro‐4H‐1,2,4‐triazol‐4‐yl)‐3H‐benzo[f]chromene‐2‐carboxamide], the IC50 in assay [1] (Homo sapiens, MDA-MB-231, 72 h) was 64 ± 1.4 µM; in assay [2] (Homo sapiens, MCF7, 72 h), 25.9 ± 0.8 µM; in assay [3] (Homo sapiens, MCF-10A) it was 62.8 ± 0.4 µM.
In the case of `O=C(Nn1c(Cc2ccccc2)n[nH]c1=O)c1cc2c(ccc3ccccc32)oc1=O` [Derivative 5d, N‐(3‐Benzyl‐5‐oxo‐1,5‐dihydro‐4H‐1,2,4‐triazol‐4‐yl)‐3‐oxo‐3H‐benzo[f]chromene‐2‐carboxamide], the IC50 came out at 87 ± 2 µM in assay [1] (Homo sapiens, MDA-MB-231, 72 h); 49.8 ± 2.2 µM in [2] (Homo sapiens, MCF7, 72 h); 38.2 ± 0.7 µM in assay [3] (Homo sapiens, MCF-10A).
For `Cc1ccc(Cc2n[nH]c(=O)n2NC(=O)c2cc3c(ccc4ccccc43)oc2=O)cc1` [Derivative 5e, N‐(3‐(4‐Methylbenzyl)‐5‐oxo‐1,5‐dihydro‐4H‐1,2,4‐triazol‐4‐yl)‐3‐oxo‐3H‐benzo[f]chromene‐2‐carboxamide] the same measures were 61.7 ± 0.4 µM, 68.9 ± 3.1 µM and 40.6 ± 2.1 µM.
As for `O=C(Nn1c(Cc2ccc(Cl)cc2)n[nH]c1=O)c1cc2c(ccc3ccccc32)oc1=O` [Derivative 5f, N‐(3‐(4‐Chlorobenzyl)‐5‐oxo‐1,5‐dihydro‐4H‐1,2,4‐triazol‐4‐yl)‐3‐oxo‐3H‐benzo[f]chromene‐2‐carboxamide], the “Cell cycle kinetics, M” value is recorded as 22.9 in assay [5] (MCF-7, IC50 value of 5f) and 20.0 in assay [9] (MDA-MB-231, IC50 value of 5f). Moreover, the “Cell cycle kinetics, S” value in assay [5] (MCF-7, IC50 value of 5f) is on record as 36.1; in assay [9] (MDA-MB-231, IC50 value of 5f) it was 36.6. The “phase of cell cycle block” value is given as “S phase” in assay [5] (MCF-7, IC50 value) and “S phase” in assay [9] (MDA-MB-231, IC50 value). In addition, the IC50 is less than 25 µM in [1] (Homo sapiens, MDA-MB-231, 72 h); 15.7 ± 0.2 µM in assay [1]; less than 25 µM in assay [2] (Homo sapiens, MCF7, 72 h); 22.1 ± 0.42 µM in assay [2]; 61.9 ± 0.6 µM in assay [3] (Homo sapiens, MCF-10A). Moreover, the “selectivity index (SI) MDA‐MB‐231” value in assay [1] (setting [13]) was determined as 3.9. For the same compound, the DNA fragmentation induction amounted to 1.65 fold in [6] (MCF-7, 1 µM); 3 fold in [6] (MCF-7, 10 µM); 4.1 fold in assay [6] (MCF-7, 50 µM); 1.7 fold in [8] (MDA-MB-231, 1 µM); 2.15 fold in assay [8] (MDA-MB-231, 10 µM); 4.15 fold in [8] (MDA-MB-231, 50 µM). Besides, the “Bcl─2 mRNA level, downregulated” value is given as 2.1 fold in assay [7] and 3.1 fold in [10]. Besides, the “Cell cycle kinetics, G0/G1” value in [9] (MDA-MB-231, IC50 value of 5f) came out at 0.8. Besides, the “selectivity index (SI) MCF‐7” value in assay [2] (setting [13]) is listed as 2.8. Also, the “Bax mRNA level, upregulated” value in assay [11] and in [12] was 2.35 fold in each case.
